# Laboratory results published in patent US20240050420A1, “NANOMEDICINES FOR TREATMENT OF DISEASE” (Chapman University, priority 2022, published 2024).
# Entries after “also recorded” stand apart in the source; their conditions may differ.
# Key:
# [1] = Drug loading of NPs quantified by HPLC; type: physicochemical; conditions: loading into PLGA nanoparticles
# Method: For both rapamycin and 4-hydoxy-TEMPO encapsulated nanoparticles (RapaTEMPO-NPs) were synthesized by a combination (1000 mg) and rapamycin (20 mg) and 4-hydoxy-TEMPO (20 mg) (polymer to total drug ratio […]) was chosen. Also, 50 mg of 3,3′-diethylthiadicarbocyanine iodide (Cy5, 680 fluorescent emission agent) was dissolved in 20 mL of DMSO. The mixture was then added into the dispersing phase (40 mL of water with 1.2 mL of 10% Pluronic F-68) dropwise under moderate magnetic stirring (500 rpm, 1 h). For size and shape measurements, synthesized nanomaterials were examined by SEM using a TESCAN GAIA-3 XMH integrated focused ion beam-FESEM electron microscope. […] XPS spectra of the samples were recorded on a Kratos Analytical AXIS Supra system with a monochromated Al/Ag X-ray source (Al target). Total survey spectra were recorded in a range from 1300 to −5 eV binding energy (dwell time 200 ms, step size 1 eV, 2 sweeps), and all the region scans were conducted with suitable ranges (dwell time 500 ms, step size 0.05 eV and 5 sweeps). The FTIR spectra were recorded using a Bruker ALPHA (Platinum-ATR) spectrometer in the diffuse reflectance mode at a resolution of 4 cm^−1. The rapamycin and 4-yydoxy-TEMPO loading efficiencies were quantified by High-Performance Liquid Chromatography (HPLC; SHIMADZU). […]
# [2] = Drug release from NPs by dialysis and HPLC; type: physicochemical; conditions: monitored over a 7-day period; growth media with serum
# Description: FIGS. 1A-I depict synthesis and characterization of polycystic kidney targeted nanoparticles. FIG. 1A: Schematic representation of synthesis, drug loading and surface functionalization of PLGA nanoparticles. FIG. 1B: The morphological features of the plain (unloaded) and drugs-loaded PLGA nanoparticles were imaged with scanning electron microscopy. Scale bars, 200 nm. FIG. 1C: Hydrodynamic size distribution of unloaded and drugs-loaded nanoparticles. FIG. 1D: Average zeta-potential measurements of unloaded and drugs-loaded nanoparticles. FIG. 1E: Average hydrodynamic size stability measurements of nanoparticles in saline (PBS), mouse plasma and growth media (DMEM) containing fetal bovine serum. […]
# For both rapamycin and 4-hydoxy-TEMPO encapsulated nanoparticles (RapaTEMPO-NPs) were synthesized by a combination (1000 mg) and rapamycin (20 mg) and 4-hydoxy-TEMPO (20 mg) (polymer to total drug ratio […]) was chosen. […] XPS spectra of the samples were recorded on a Kratos Analytical AXIS Supra system with a monochromated Al/Ag X-ray source (Al target). Total survey spectra were recorded in a range from 1300 to −5 eV binding energy (dwell time 200 ms, step size 1 eV, 2 sweeps), and all the region scans were conducted with suitable ranges (dwell time 500 ms, step size 0.05 eV and 5 sweeps). […]
# ADPKD cells = assay: 3D cyst culture in Matrigel/collagen with forskolin and EGF; type: cell-based, human; conditions: 3D culture, treatment from day 1, evaluated on day 6
# Method: FIGS. 2A-C depict functional nanoparticle-targeting in 3-dimensional culture. FIG. 2A: Human renal epithelia from normal kidney (NK) cells and autosomal dominant polycystic kidney disease (ADPKD) were grown to form cysts in a 3D Matrigel system with collagen in the presence of forskolin and EGF for 1 day followed by different treatments for 5 additional days. All representative live DIC and fluorescence images were taken at 6 days. Control treatment was denoted as vehicle (saline-only). 3D non-cyst/cyst cultures were imaged for nanoparticles uptake, cyst formation and cysts size measurements. The inset images at the right showing the enlarged cystic area taken from the white square boxes selected from the images at the left. Scale bar, 200 μm. FIG. 2B: Percent number of cysts were measured and plotted in bar graphs; each point represents an averaged of replicate.
# 3D cyst culture and live imaging. […] To assess the effects of vehicle (saline) and different plain and drug-loaded nanoparticles (1 mg/mL) were added (10 μL) on day one after stimulation with forskolin and cyst formation were evaluated on day 6. The cyst growth was observed by using Nikon live cell microscope using its DIC and fluorescence capabilities. […] Using ×20 lens, the number of cysts and their sizes (in diameter) in each well was counted and measured using an ocular scale from the Nikon Eclipse Imaging Software. […]
# mTOR signaling pathway = assay: Immunoblotting of p-S6K and p-S6 in kidney lysates; type: in vivo, mice; conditions: end of 9 weeks of therapy
# Method: Drug-NPs were administered intravenously once, while drug-only was intravenously injected daily. N=5. […] Total-S6K (t-S6K), total-S6 (t-S6) and equal loading control (GAPDH). N=3. FIG. 4C: Immunoblot data for p-S6K in bar graphs. […] Statistical analysis was performed using ANOVA followed by Tukey's multiple comparison test.
# Immunoblotting. After the completion of in-life studies, mice treated with the different control, plain and drug-loaded nanoparticles were euthanized, and the kidneys were collected and rinsed with PBS. Approximately 100 mg of tissue samples were placed in RIPA buffer supplemented with Complete Protease Inhibitor (MedChemExpress). […] Samples were then centrifuged at 20 000 rpm for 15 min, and the supernatants were collected and subjected to protein quantification. The PAGE (polyacrylamide gel electrophoresis) on 8-10% SDS gels was performed, followed by semi-dry transfer to PVDF membranes using a Bio-Rad Trans-Blot (Turbo Transfer) machine and detection using antibodies against p-S6 (1:000), p-S6K (1:1000), t-S6 (1:2000), t-S6K (1:2000) and GAPDH (1:1,000) (Cell Signaling Technology). Blots were scanned with both calorimetries to image molecular markers and chemiluminescence to capture the protein signal intensity using a BioRad Gel-doc imaging system.
# Pkd2 mice [3] = assay: CT imaging of total kidney volume; type: in vivo; conditions: CT at 3, 6 and 9 weeks
# Method: FIGS. 20A-C. FIGS. 20A-B depict coronal and trans-axial CT imaging of mice at 3, 6 and 9 weeks of treatment time. FIG. 20C: Plots showing the total kidney volume at 3, 6 and 9 weeks of treatment time.
# Because RapaTEMPO-NPs were applied prior to severe cystic development in the kidneys, lateral (FIG. 20A) and cross-section (FIG. 20B) of computerized tomography scans were performed in the kidneys at 3-, 6- and 9-weeks to monitor progression of changes in kidney volume. […] Longitudinal effects on blood pressure were also monitored throughout the treatment period (FIG. 21). The increase in blood pressure in kidney-specific Pkd2 seemed to be associated with expansion of renal cysts leading to compression in renal vasculature and eventual RAAS activation.
# polycystic kidneys = conditions: literature; cited from earlier work
# Pkd2 mice [4] = assay: 9-week treatment of Pkd2 mice: body weight, survival, cysts, fibrosis, kidney fluorescence; conditions: long-term use, drug-alone 1 mg/kg i.v. daily
# Description: FIG. 5A: Kidney comparison of wild-type (WT) and Pkd2 kidneys after 9-weeks of treatment. Color, brightfield, fluorescent images were captured consecutively. The hematoxylin and eosin (H&E) sections were obtained from the same corresponding kidneys.
# FIG. 5B: Fluorescence intensity measurements from isolated kidneys were normalized to total kidney volume (TKV). […] FIG. 5D: Total kidney weight measurement. FIG. 5D. Percent weight ratio of 2 kidneys to body weight (2 KW/BW). FIG. 5F: Total cyst number calculated using H&E staining. FIG. 5G: Kaplan-Meier survival curves analyzed with Log-rank test. N=5 for all experiments. *P<0.05, **P<0.01, ***P<0.001, ****P<0.0001 compared to wild-type vehicle. #P<0.05, ##P<0.01, #44P<0.001, #44t #P<0.0001 compared to Pkd2 vehicle. Statistical analysis was performed using ANOVA followed by Tukey's multiple comparison test.
# Animal studies. […] All animal experimentation was conducted as double-blinded operators to disregard biases and critical analyses. All control (KspCre·Pkd2^WT/WT) and PKD (KspCre·Pkd2^flox/flox) non-inducible mice models were obtained from the Jackson Laboratory and Harvard Medical School.
# Histology Studies. Sections of the mouse visceral organs (hearts, kidneys, livers, spleens, and lung)s, were collected and subjected to hematoxylin and eosin (H&E) staining by starting the tissue fixation using 10% formalin. Then, the tissues were dehydrated in buffered formalin, ethanol, and xylene. Finally, the tissues were embedded in liquid paraffin, sectioned (5 μm), and stained with H&E for histological examinations. The pathology slices were observed and imaged using a KEYENCE BZ-X710 microscope. Mouse normal and polycystic kidney sections were stained with Masson's trichrome to detect fibrosis using a Masson's Trichrome Stain Kit (Polysciences, Inc.).
# Throughout the studies, KspCre·Pkd2^WT/WT and KspCre·Pkd2^flox/flox mouse models were used and are respectively referred to wild-type and Pkd2 mice henceforth.
smiles,measurement,setting,value
"CC1(C)CC(O)CC(C)(C)N1[O] [4-hydroxy-[2,2,6,6-tetramethylpiperidin-1-yl]oxidanyl]","Drug loading, weight ratio drug/NPs",[1],34.7±3.1%
same,Time of maximum drug release from NPs,[2],about 3 days
same,Cyst number and size,ADPKD cells,some effect
same,Effect on levels of phosphorylation of S6K and S6,mTOR signaling pathway,minimal effect
same,Total kidney volume over treatment time,Pkd2 mice [3],no effect in kidney volume expansion
same,Kidney injury and fibrosis,polycystic kidneys,alleviate kidney injury and fibrosis by reducing renal superoxide
CO[C@H]1C[C@@H]2CC[C@@H](C)[C@@](O)(O2)C(=O)C(=O)N2CCCC[C@H]2C(=O)O[C@H]([C@H](C)C[C@@H]2CC[C@@H](O)[C@H](OC)C2)CC(=O)[C@H](C)/C=C(\C)[C@@H](O)[C@@H](OC)C(=O)[C@H](C)C[C@H](C)/C=C/C=C/C=C/1C [rapamycin],Body weight,Pkd2 mice [4],reduced
same,Body weight,Pkd2 mice [4]; listed as rapamycin-alone,significantly lowered the body weight; also recorded: nor reduces the impediment in body weight gain
